Read-outs that look alike come from different tables or passages of the source.
What was measured:
[1] = tested on: HepG2 cells; experiment: HepG2 cytotoxicity assay
Method in brief: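 Cells are plated at 2,500 per well on compound-treated plates in MEM containing 10% fetal bovine serum and 1% NEAA, then incubated 48 h at 37°C.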

[2] = tested on: P. falciparum late stage (stages IV-V) gametocytes; set-up: method as in Almela et al 2016; conditions: ref Almela et al 2016, read-out: Pf GCT ATP IC50, cited from earlier work
[3] = tested on: P. falciparum female gametocytes; set-up: method as in Miguel-Blanco et al 2017; conditions: ref Miguel-Blanco et al 2017, read-out: Pf FGAA IC50, cited from earlier work
[4] = tested on: HepG2 cells; conditions: cited from earlier work
[5] = tested on: P. falciparum female gametocytes; experiment: P. falciparum female gametogenesis assay (Pf FGAA); conditions: 1: YES; 0: NO
[6] = tested on: P. falciparum late stage (stages IV-V) gametocytes; experiment: P. falciparum late stage gametocyte ATP depletion assay (Pf GC-ATP); conditions: 1: YES; 0: NO
[7] = HepG2 values of the three screens unified
[8] = HepG2 cytotoxicity unified across the three screens
[9] = value reported with the Pf FGAA screen, ref Miguel-Blanco et al 2017
[10] = value reported with the Pf GCT ATP screen, ref Almela et al 2016

| SMILES | Unified cytotox [1, 7] [µM] | IC50 [2] [nM] | IC50 [3] [nM] | HepG2 cytoxicity (Pf GCT ATP screen) ([4]; ref Almela et al 2016) [µM] | HepG2 cytoxicity (Pf FGAA screen) ([4]; ref Miguel-Blanco et al 2017) [µM] | Is compound selective in assay? Pf FGAA active? [5] | Is compound selective in assay? Pf GC-ATP active? [6] | Unified cytotox [1, 8] [µM] | IC50 ([2]; TCAMS screen comparison) [nM] | IC50 ([3]; TCAMS screen comparison) [nM] | HepG2 cytoxicity [4, 9] [µM] | HepG2 cytoxicity [4, 10] [µM] |
| --- | --- | --- | --- | --- | --- | --- | --- | --- | --- | --- | --- | --- |
| CCCCOc1c(CCNCCCCNCCc2cc(OC)c3ccccc3c2OCCCC)cc(OC)c2ccccc12.CS(=O)(=O)O [TCMDC-137848] | 2.54 | 80 | 610 | 3.1 | 1.97 | 0 (0: NO) | 1 (1: YES) |  |  |  |  |  |
| CS(=O)(=O)O.FC(F)(F)COc1ccc(CNCCCCCCNCc2ccc(OCC(F)(F)F)c3ccccc23)c2ccccc12 [TCMDC-137853] |  |  |  |  |  | 0 (0: NO) | 1 (1: YES) | 2.73 | 55 | 630 | 2.46 | 3 |
| COc1c(CCNCCCCNCCc2cc(Cl)c3ccccc3c2OC)cc(Cl)c2ccccc12.CS(=O)(=O)O [TCMDC-137869] | 2.57 | 80 | 330 | 3.36 | 1.78 | 0 (0: NO) | 1 (1: YES) |  |  |  |  |  |
| CN(CCCNCc1ccc2ccccc2c1)CCCNCc1ccc2ccccc2c1.Cl [TCMDC-137908] | 4.85 | 50 | 90 | 4.68 | 5.01 | 1 (1: YES) | 1 (1: YES) |  |  |  |  |  |
| COc1ccc2ccccc2c1CNCCCCCCNCc1c(OC)ccc2ccccc12.Cl [TCMDC-137915] | 3.90 | 250 | 700 | 3.59 | 4.22 | 0 (0: NO) | 1 (1: YES) |  |  |  |  |  |
| COc1ccc2c(c1)CC(C)(C)NC2CCCCCCCCC1NC(C)(C)Cc2cc(OC)ccc21.O=C(O)C(=O)O (stereo not drawn) [TCMDC-137935] |  |  |  |  |  | 0 (0: NO) | 0 (0: NO) | 5.47 | 790 | 1470 | 5.62 | 5.32 |
| CCOc1cc(CNCCCCCCNCc2cc(OCC)c(OCC)c3ccccc23)c2ccccc2c1OCC.CS(=O)(=O)O [TCMDC-137939] | 2.35 | 750 | 1780 | 2.7 | 2.00 | 0 (0: NO) | 0 (0: NO) |  |  |  |  |  |
| COc1cc2ccccc2cc1CCNCCCCNCCc1cc2ccccc2cc1OC.CS(=O)(=O)O [TCMDC-137944] |  |  |  |  |  | 0 (0: NO) | 1 (1: YES) | 2.53 | 110 | 620 | 1.66 | 3.39 |
| CCCOc1ccc(CCNCCCCNCCc2ccc(OCCC)c3ccccc23)c2ccccc12.CS(=O)(=O)O [TCMDC-137952] |  |  |  |  |  | 0 (0: NO) | 1 (1: YES) | 2.38 | 80 | 610 | 2.16 | 2.6 |
| COc1ccc2c(OC)c(CNCCCCCCNCc3ccc4cc(OC)ccc4c3OC)ccc2c1.CS(=O)(=O)O [TCMDC-137953] |  |  |  |  |  | 0 (0: NO) | 0 (0: NO) | 2.66 | 1540 | 1000 | 2.11 | 3.2 |
| CCCCCCOc1ccc2ccccc2c1CNCCCCCCNCc1c(OCCCCCC)ccc2ccccc12.CS(=O)(=O)O [TCMDC-137963] |  |  |  |  |  | 0 (0: NO) | 0 (0: NO) | 2.85 | 480 | 1500 | 2.40 | 3.3 |
| CC(C)Oc1ccc2ccccc2c1CNCCCCCCNCc1c(OC(C)C)ccc2ccccc12.CS(=O)(=O)O [TCMDC-137965] |  |  |  |  |  | 0 (0: NO) | 1 (1: YES) | 2.14 | 140 | 950 | 1.91 | 2.38 |
| CCCOc1ccc2ccccc2c1CNCCCCCCNCc1c(OCCC)ccc2ccccc12.CS(=O)(=O)O [TCMDC-137966] |  |  |  |  |  | 0 (0: NO) | 0 (0: NO) | 2.55 | 340 | 1030 | 2.00 | 3.1 |
| CC(C)COc1ccc2ccccc2c1CNCCCCCCNCc1c(OCC(C)C)ccc2ccccc12.CS(=O)(=O)O [TCMDC-137972] |  |  |  |  |  | 0 (0: NO) | 1 (1: YES) | 2.03 | 100 | 810 | 2.19 | 1.88 |
| CC(C)(C)c1ccc(-c2cc3c(ccc4nc(N)nc(N)c43)[nH]2)cc1 [TCMDC-137977] |  |  |  |  |  | 0 (0: NO) | 0 (0: NO) | 2.56 | 550 | 770 | 1.86 | 3.26 |
| CC(C)(C)c1ccc(-c2nc3c(ccc4nc(N)nc(N)c43)[nH]2)cc1.Cl [TCMDC-137984] |  |  |  |  |  | 1 (1: YES) | 1 (1: YES) | 2.98 | 210 | 260 | 2.12 | 3.85 |
| CCCCCCCCN1CCN(CCCCCCNc2c3ccccc3nc3ccccc23)CC1.Cl [TCMDC-138015] |  |  |  |  |  | 0 (0: NO) | 1 (1: YES) | 3.23 | 250 | 640 | 3.35 | 3.1 |
| COc1cc2nc(NCc3cccc(CNC(=O)c4ccc(-c5ccc(C(C)=O)cc5)cc4)c3)nc(N)c2cc1OC.O=C(O)C(F)(F)F [TCMDC-138177] |  |  |  |  |  | 0 (0: NO) | 0 (0: NO) | 8.16 | 2000 | 4730 | 6.82 | 9.5 |
| COc1cc2nc(N3CCN(C(=O)c4c(Cl)nsc4-c4ccccc4Cl)CC3)nc(N)c2cc1OC.O=C(O)C(F)(F)F [TCMDC-138186] |  |  |  |  |  | 0 (0: NO) | 1 (1: YES) | 7.04 | 220 | 990 | 5.89 | 8.18 |
| Cc1ccc(C(=O)Nc2ccc(Nc3ccnc4cc(-c5ccccn5)ccc34)cc2O)cc1.Cl [TCMDC-138205] |  |  |  |  |  | 0 (0: NO) | 0 (0: NO) | 2.19 | 480 | 540 | 1.27 | 3.11 |
| CN(C)CCNCc1ccc(-c2ccc3c(Nc4ccc(Oc5ccccc5)cc4)ccnc3c2)o1 [TCMDC-138399] |  |  |  |  |  | 0 (0: NO) | 1 (1: YES) | 6.63 | 330 | 1560 | 5.69 | 7.57 |
| CN(C)CCN(C)Cc1cccc(-c2ccc3c(Nc4ccc(F)cc4Cl)ccnc3c2)c1 [TCMDC-138416] |  |  |  |  |  | 0 (0: NO) | 1 (1: YES) | 4.85 | 480 | 7020 | 6.10 | 3.6 |
| CN(C)CCNCc1cccc(-c2ccc3c(Nc4ccc(Oc5ccccn5)cc4)ccnc3c2)c1 [TCMDC-138493] |  |  |  |  |  | 0 (0: NO) | 1 (1: YES) | 4.24 | 220 | 820 | 3.98 | 4.49 |
| COc1cc2nc(N3CCC(CCCC4CCNCC4)CC3)nc(NCc3ccccn3)c2cc1OC.O=C(O)C(F)(F)F [TCMDC-138494] |  |  |  |  |  | 0 (0: NO) | 1 (1: YES) | 14.55 | 400 | 6860 | 18.51 | 10.59 |

— PMC6753678, “Fueling Open Innovation for Malaria Transmission-Blocking Drugs: Hundreds of Molecules Targeting Early Parasite Mosquito Stages” (Frontiers in Microbiology, 2019)
